Source: patent US4230617A, “Somatostatin analogues” (American Home Products Corporation, priority 1979, dated 1980)
Structures can show the parent of a compound that is named as a salt. Positions of bridges follow the written chain, without caps; N, C: chain ends. Non-standard residues stand in square brackets, D forms with d. Residues, ends and D or L forms follow the SMILES beside them.

What was measured:
Format in all cases: in vivo, albino male rats
growth hormone [1] = test: Arginine-stimulated growth hormone release in Nembutal-anesthetized rats, blood radioimmunoassay; conditions: rat, * p < 0.01
Protocol: (§1) The in vivo activity of the polypeptides of this invention was established by subjecting the product of Examples 2 and 3 as representative compounds of the invention, to the following standard test procedure: Two groups of ten albino male rats were arranged to provide a control group and a group for study of the compounds of this invention. Nembutal (50 mg/kg) was injected intraperitoneally into each rat. Fifteen minutes late a subcutaneous injection of the test compound or physiological saline (control) was administered separately to each of the two groups of rats. Ten minutes later 0.5 milliliters of arginine (300 mg/ml., pH 7.2) was injected into the rats heart. The rats were decapitated five minutes later and their blood was collected in Trasylol-EDTA. Aliquot samples were radioimmunoassayed for growth hormone, insulin and glucagon.

insulin = test: Arginine-stimulated insulin release in Nembutal-anesthetized rats, blood radioimmunoassay; conditions: rat
Protocol: as §1

glucagon = test: Arginine-stimulated glucagon release in Nembutal-anesthetized rats, blood radioimmunoassay; conditions: rat
Protocol: as §1

growth hormone [2] = test: Duration test: same procedure with 2 and 4 hour period before blood sampling, growth hormone radioimmunoassay; conditions: rat, 1,000 ug/kg
Protocol: as §1, with “glucagon. The results of these tests are presented below:” for “glucagon.”
The procedure described in the preceding paragraph was repeated with the exception that a 2 and 4 hour period was allowed to elapse before blood sampling.

[3] = summary statement, for periods up to about four hours
[4] = 2 hours before blood sampling, * p < 0.01
[5] = 4 hours before blood sampling, + p < 0.05

Question: With `C[C@@H](O)[C@@H]1NC(=O)[C@H](Cc2ccccc2)NC(=O)[C@H]([C@@H](C)O)NC(=O)[C@H](CCCCN)NC(=O)[C@@H](Cc2c[nH]c3ccccc23)NC(=O)[C@H](Cc2c[nH]c3ccccc23)NC(=O)[C@H](Cc2ccccc2)NC(=O)[C@H](Cc2c[nH]cn2)NC(=O)[C@H](CCCNC(=N)N)NC(=O)[C@@H](N)CSSC[C@@H](C(=O)O)NC(=O)[C@H](CO)NC1=O` [Example 2, L-Cysteinyl-L-arginyl-L-histidyl-L-phenylalanyl-L-tryptophyl-D-tryptophyl-L-lysyl-L-threonyl-L-phenylalanyl-L-threonyl-L-seryl-L-cysteine cyclic (1-12) disulfide tetraacetate salt] (H-CRHFW[dW]KTFTSC-OH; disulfide 1-12) as the molecule, how does the GH (growth hormone [1]; 50 μg/kg subcutaneous, control 379 ± 50) read?
Answer: The GH was 104 ± 8 ng/mL.

Question: What about the GH (growth hormone [1]; 200 μg/kg subcutaneous, control 202 ± 11) of the same molecule?
Answer: Its GH is 92 ± 8 ng/mL.

Question: What about the INS (insulin; 50 μg/kg subcutaneous, control 137 ± 25) of the same molecule?
Answer: The INS was 61 ± 4 μU/ml.

Question: And the INS (insulin; 200 μg/kg subcutaneous, control 238 ± 23, + p < 0.05)?
Answer: Its INS is 149 ± 23 μU/ml.

Question: And the “insulin release (result in words)” value (insulin; [3])?
Answer: The value was “suppress”.

Question: What about the GLUN (glucagon; 50 μg/kg subcutaneous, control 119 ± 8, * p < 0.01) of the same molecule?
Answer: The GLUN was 36 ± 8 pg/mL.

Question: What about the GLUN (glucagon; 200 μg/kg subcutaneous, control 85 ± 6, * p < 0.01) of the same molecule?
Answer: Its GLUN is 20 ± 4 pg/mL.

Question: And the “glucagon release (result in words)” value (glucagon; [3])?
Answer: Its value is “suppress”.

Question: What about the GH (growth hormone [2]; [4]) of the same molecule?
Answer: Its GH is 51 ± 9 ng/mL.

Question: And the GH (growth hormone [2]; [5])?
Answer: Its GH is 60 ± 11 ng/mL.

Question: `C[C@@H](O)[C@@H]1NC(=O)[C@H](Cc2ccccc2)NC(=O)[C@H]([C@@H](C)O)NC(=O)[C@H](CCCCN)NC(=O)[C@@H](Cc2c[nH]c3ccccc23)NC(=O)[C@H](Cc2c[nH]cn2)NC(=O)[C@H](Cc2ccccc2)NC(=O)[C@H](Cc2c[nH]cn2)NC(=O)[C@H](CCCNC(=N)N)NC(=O)[C@@H](N)CSSC[C@@H](C(=O)O)NC(=O)[C@H](CO)NC1=O` [Example 3, L-Cysteinyl-L-arginyl-L-histidyl-L-phenylalanyl-L-histidyl-D-tryptophyl-L-lysyl-L-threonyl-L-phenylalanyl-L-threonyl-L-seryl-L-cysteine cyclic (1-12) disulfide tetraacetate salt] (H-CRHFH[dW]KTFTSC-OH; disulfide 1-12) was tested. Which GH (growth hormone [1]; 100 μg/kg subcutaneous, control 201 ± 40) did it give?
Answer: The GH was 48 ± 20 ng/mL.

Question: And the INS (insulin; 100 μg/kg subcutaneous, control 268 ± 21)?
Answer: Its INS is 282 ± 48 μU/ml.

Question: And the GLUN (glucagon; 100 μg/kg subcutaneous, control 89 ± 14)?
Answer: Its GLUN is 72 ± 13 pg/mL.

Question: And the GH (growth hormone [2]; [4])?
Answer: The GH was 181 ± 59 ng/mL.

Question: And the GH (growth hormone [2]; [5])?
Answer: Its GH is 129 ± 29 ng/mL.
